Measurements published in the NIST ThermoML archive (doi:10.1016/j.fluid.2018.05.008).
Numbers after ± are expanded uncertainties.

Columns and labels:
[1] = xn = mol fraction of the nth substance listed; settings: 100 kPa, Liquid, Vibrating tube method, x2 = 0.333
[2] = 100 kPa, Liquid, Vibrating tube method

Row | mass density ([1]; 293.15 K) [kg/m3] | mass density ([1]; 303.15 K) [kg/m3] | mass density ([1]; 313.15 K) [kg/m3] | mass density ([1]; 323.15 K) [kg/m3] | mass density ([1]; 333.15 K) [kg/m3] | mass density ([2]; 293.15 K) [kg/m3] | mass density ([2]; 303.15 K) [kg/m3] | mass density ([2]; 313.15 K) [kg/m3] | mass density ([2]; 323.15 K) [kg/m3] | mass density ([2]; 333.15 K) [kg/m3] | SMILES
1 | 1199.7 ± 1.1 | 1194.2 ± 1.1 | 1188.6 ± 1.1 | 1183.2 ± 1.1 | 1178 ± 1.1 |  |  |  |  |  | NC(N)=O [urea] + C[N+](C)(C)CCO.[Cl-]
2 |  |  |  |  |  | 790.6 ± 1 | 781.9 ± 1 | 773.3 ± 1 | 764.4 ± 1 | 755.1 ± 1 | CCO [ethanol]
